Experimental data taken from US20100331315A1, “RHODANINES AND RELATED HETEROCYCLES AS KINASE INHIBITORS” (priority 2009, published 2010).
pIC50: −log10 of the molar value.

Legend:
[1] = system: PC-3 human prostatic cancer cells; assay: Alamar Blue cell proliferation assay, PC3; format: cell-based; conditions: PC-3, PC3, Table 1, read-out: AB: PC3
Description: (§1) A representative cell-proliferation assay protocol using Alamar Blue dye (stored at 4° C., use 20 ul per well) is described hereafter.
(§2) a. Split and trypsinize cells.
(§3) b. Count cells using hemocytometer.
(§4) c. Plate 4,000-5,000 cells per well in 100 μl of medium and seed into a 96-well plate according to the following plate layout. Add cell culture medium only to wells B10 to B12. Wells B1 to B9 have cells but no compound added.
(§5) d. Add 100 μl of 2× drug dilution to each well in a concentration shown in the plate layout above. At the same time, add 100 μl of media into the control wells (wells B10 to B12). Total volume is 200 μl/well.
(§6) e. Incubate four (4) days at 37° C., 5% CO2 in a humidified incubator.
(§7) f. Add 20 μl Alamar Blue reagent to each well.
(§8) g. Incubate for four (4) hours at 37° C., 5% CO2 in a humidified incubator.
(§9) h. Record fluorescence at an excitation wavelength of 544 nm and emission wavelength of 590 nm using a microplate reader.
(§10) In the assays, cells are cultured with a test compound for approximately four days, the dye is then added to the cells and fluorescence of […] dye is detected after approximately four hours. Different types of cells can be utilized in the assays (e.g., HCT-116 human colorectal carcinoma cells, PC-3 human prostatic cancer cells and MiaPaca human pancreatic carcinoma cells).

[2] = molecular target: T1, recombinant human CK2 (Homo sapiens, UniProt P68400); assay: CK2 assay (cell-free, 33P-ATP filter plate); format: biochemical; conditions: Table 1
T1 construct: purchased Upstate
T1 sequence (P68400 whole entry): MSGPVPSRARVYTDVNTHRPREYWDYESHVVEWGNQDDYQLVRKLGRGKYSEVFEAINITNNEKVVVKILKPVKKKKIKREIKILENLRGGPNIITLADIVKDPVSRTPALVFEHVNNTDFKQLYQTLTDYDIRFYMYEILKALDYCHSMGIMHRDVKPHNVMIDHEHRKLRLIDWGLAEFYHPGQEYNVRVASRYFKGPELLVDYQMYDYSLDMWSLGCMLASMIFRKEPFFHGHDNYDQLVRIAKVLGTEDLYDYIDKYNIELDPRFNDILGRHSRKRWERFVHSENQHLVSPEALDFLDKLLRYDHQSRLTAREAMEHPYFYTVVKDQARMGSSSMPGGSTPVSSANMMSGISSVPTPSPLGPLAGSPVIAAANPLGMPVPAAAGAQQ
T1 sequence (P67870 whole entry partner): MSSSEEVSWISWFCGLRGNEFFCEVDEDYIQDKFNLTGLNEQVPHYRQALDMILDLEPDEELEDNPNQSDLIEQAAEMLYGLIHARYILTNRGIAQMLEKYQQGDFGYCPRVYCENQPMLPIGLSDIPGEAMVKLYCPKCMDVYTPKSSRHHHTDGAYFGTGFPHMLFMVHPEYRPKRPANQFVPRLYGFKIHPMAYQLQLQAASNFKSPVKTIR
Description: Modulatory activity of compounds described herein was assessed in vitro in cell-free CK2 assays by the following method.
Test compounds in aqueous solution were added at a volume of 10 microliters, to a reaction mixture comprising 10 microliters Assay Dilution Buffer (ADB; 20 mM MOPS, pH 7.2, 25 mM beta-glycerolphosphate, 5 mM EGTA, 1 mM sodium orthovanadate and 1 mM dithiothreitol), 10 microliters of substrate peptide (RRRDDDSDDD, dissolved in ADB at a concentration of 1 mM), 10 microliters of recombinant human CK2 (25 ng dissolved in ADB; Upstate). Reactions were initiated by the addition of 10 microliters of ATP Solution (90% 75 mM MgCl2, 75 micromolar ATP dissolved in ADB; 10% [γ-^33P]ATP (stock 1 mCi/100 μl; 3000 Ci/mmol (Perkin Elmer) and maintained for 10 minutes at 30 degrees C. The reactions were quenched with 100 microliters of 0.75% phosphoric acid, then transferred to and filtered through a phosphocellulose filter plate (Millipore). After washing each well 5 times with 0.75% phosphoric acid, the plate was dried under vacuum for 5 min and, following the addition of 15 ul of scintillation fluid to each well, the residual radioactivity was measured using a Wallac luminescence counter.

[3] = system: MV-4-11; assay: Alamar Blue cell proliferation assay, MV-4-11; format: cell-based; conditions: Homo sapiens, MV4-11, MV-4-11, Table 1, read-out: AB: MV-4-11 IC50
Description: as §1, §2, §3, §4, §5, §6, §7, §8, §9, §10

[4] = molecular target: recombinant PIM-1 (Homo sapiens, UniProt P11309); assay: PIM-1 assay (33P-ATP filter plate); format: biochemical; conditions: Table 1; read-out: PIM1: IC50
Chain of recombinant PIM-1 (P11309 whole entry): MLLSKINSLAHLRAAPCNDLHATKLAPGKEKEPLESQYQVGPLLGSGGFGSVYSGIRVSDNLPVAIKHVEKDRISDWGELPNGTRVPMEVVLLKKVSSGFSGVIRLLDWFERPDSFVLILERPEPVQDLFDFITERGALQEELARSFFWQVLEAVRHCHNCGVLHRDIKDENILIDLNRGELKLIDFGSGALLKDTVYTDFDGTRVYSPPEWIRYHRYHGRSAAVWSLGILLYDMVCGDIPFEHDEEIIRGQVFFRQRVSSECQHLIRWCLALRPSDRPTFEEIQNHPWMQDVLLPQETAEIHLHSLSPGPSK
Description: The following procedure was used to assay the PIM-1 kinase activity of compounds of the invention. Other methods for assaying PIM-1 and other PIM kinases, as well as methods to assay for activity against the various kinases are known in the art.
In a final reaction volume of 50 ul, recombinant PIM-1 (1 ng) was incubated with 12 mM MOPS pH 7.0, 0.4 mM EDTA, glycerol 1%, brij 35 0.002%, 2-mercaptoethanol 0.02%, BSA 0.2 mg/ml, 100 uM KKRNRTLTK, 10 mM MgAcetate, 15 uM ATP, [γ-^33P-ATP] (specific activity approx. 500 cpm/pmol), DMSO 4% and test inhibitor compound at the required concentration. The reaction was initiated by the addition of the Magnesium ATP mixture. After 40 min incubation at 23° C., the reactions were quenched by the addition of 100 ul 0.75% Phosphoric acid, and the labeled peptide collected by filtration through a phosphocellulose filter plate. The plate was washed 4 times with 0.075% phosphoric acid (100 ul per well) and then, after the addition of scintillation fluid (20 ul per well), the counts were measured by a scintillation counter.

[5] = system: K-562; assay: Alamar Blue cell proliferation assay, K-562; format: cell-based; conditions: Homo sapiens, K562, K-562, Table 1, read-out: AB: K-562 IC50
Description: as §1, §2, §3, §4, §5, §6, §7, §8, §9, §10

[6] = system: MDAMB231; assay: Alamar Blue cell proliferation assay, MDAMB231; format: cell-based; conditions: Homo sapiens, MDA-MB-231, MDAMB231, Table 1, read-out: AB: MDAMB231 IC50
Description: as §1, §2, §3, §4, §5, §6, §7, §8, §9, §10

[7] = system: MiaPaca human pancreatic carcinoma cells; assay: Alamar Blue cell proliferation assay, MiaPaCa; format: cell-based; conditions: MIA PaCa-2, Table 1, read-out: AB: MiaPaCa IC50
Description: as §1, §2, §3, §4, §5, §6, §7, §8, §9, §10

[8] = molecular target: recombinant human PIM2 (Homo sapiens, UniProt Q9P1W9); assay: PIM-2 assay (33P-ATP filter plate); format: biochemical; conditions: Table 1
Chain of recombinant human PIM2 (Q9P1W9 whole entry): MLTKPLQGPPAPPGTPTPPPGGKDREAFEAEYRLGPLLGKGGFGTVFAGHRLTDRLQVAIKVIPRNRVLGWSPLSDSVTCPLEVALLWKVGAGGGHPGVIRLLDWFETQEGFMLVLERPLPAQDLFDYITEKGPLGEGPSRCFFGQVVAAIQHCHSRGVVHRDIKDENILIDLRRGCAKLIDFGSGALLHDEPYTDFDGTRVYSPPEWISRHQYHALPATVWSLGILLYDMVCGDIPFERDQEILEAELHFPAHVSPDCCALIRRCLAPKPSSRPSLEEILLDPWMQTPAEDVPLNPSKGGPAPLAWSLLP
Description: PIM-2 Assay Method: Test compounds dissolved and diluted in DMSO (2 μl) were added to a reaction mixture comprising 10 μl of 5× Reaction Buffer (40 mM MOPS pH 7.0, 5 mM EDTA), 10 μl of recombinant human PIM2 solution (4 ng PIM-2 dissolved in dilution buffer (20 mM MOPS pH 7.0; EDTA 1 mM; 5% Glycerol; 0.01% Brij 35; […]; […] 2-mercaptoethanol; 1 mg/ml BSA)) and 8 ul of water. Reactions were initiated by the addition of 10 ul of ATP Solution (49% (15 mM MgCl2; 75 uM ATP) 1% ([γ-^33P]ATP: Stock 1 mCi/1000; 3000Ci/mmol (Perkin Elmer)) and 10 ul of substrate peptide solution (RSRSSYPAGT, dissolved in water at a concentration of 1 mM), Reactions were maintained for 10 min at 30° C. The reactions were quenched with 100 ul of 0.75% Phosphoric acid, then transferred to and filtered through a Phosphocellulose filter plate (Millipore, MSPH-N6B-50). After washing each well 4 times with 0.75% Phosphoric acid, scintillation fluid (20 uL) was added to each well and the residual radioactivity was measured using a Wallac luminescence counter.

Row | pIC50 [1] | pIC50 [2] | pIC50 [3] | pIC50 [4] | pIC50 [5] | pIC50 [6] | pIC50 [7] | pIC50 [8] | Structure (SMILES)
1 | < 4.52 | 7.33 | 6.39 | 8.30 | 5.54 | < 5.00 | 5.64 | 7.89 | CN1CCCN(C(=O)c2cccc(-c3ccc(/C=C4\SC(=S)NC4=O)o3)c2)CC1
2 | < 4.52 | – | < 5.00 | 7.13 | < 5.00 | < 5.00 | < 5.00 | 6.15 | O=C1NC(=S)S/C1=C\c1ccc(-c2cccc(C(=O)NCCN3CCCC3)c2)o1
3 | < 4.52 | 6.39 | < 5.00 | 8.05 | < 5.00 | < 5.00 | < 5.00 | – | O=C1NC(=S)S/C1=C\c1ccc(-c2cccc(C(=O)N3CCCNCC3)c2)o1
4 | < 4.52 | 6.35 | < 5.00 | 7.42 | < 5.00 | < 5.00 | < 5.00 | – | CC(=O)NC1CCN(C(=O)c2cccc(-c3ccc(/C=C4\SC(=S)NC4=O)o3)c2)C1 (stereo not shown)
5 | < 4.52 | 7.92 | 5.02 | 7.89 | < 5.00 | < 5.00 | < 5.00 | – | O=C1NC(=S)S/C1=C\c1ccc(-c2cccc(C(=O)N3CC[C@H](F)C3)c2)o1
6 | < 4.52 | 7.59 | < 5.00 | 7.40 | < 5.00 | < 5.00 | < 5.00 | – | O=C1NC(=S)S/C1=C\c1ccc(-c2cccc(C(=O)N3CC[C@@H](F)C3)c2)o1
7 | < 4.52 | 6.58 | < 5.00 | 7.55 | < 5.00 | < 5.00 | < 5.00 | – | CCNC(=O)c1cccc(-c2ccc(/C=C3\SC(=S)NC3=O)o2)c1
8 | < 4.52 | 6.91 | < 5.00 | 7.51 | < 5.00 | < 5.00 | < 5.00 | – | COCCNC(=O)c1cccc(-c2ccc(/C=C3\SC(=S)NC3=O)o2)c1
9 | < 4.52 | 7.43 | 6.76 | 7.92 | < 5.00 | < 5.00 | < 5.00 | – | O=C1NC(=S)S/C1=C\c1ccc(-c2cccc(C(=O)N3CCC[C@H]3CO)c2)o1
10 | < 4.52 | 6.58 | < 5.00 | 6.84 | < 5.00 | < 5.00 | < 5.00 | – | O=C1NC(=S)S/C1=C\c1ccc(-c2cccc(C(=O)NNc3ccnc4cc(Cl)ccc34)c2)o1
11 | < 4.52 | 7.03 | < 5.00 | 7.44 | < 5.00 | < 5.00 | < 5.00 | – | CN(C)NC(=O)c1cccc(-c2ccc(/C=C3\SC(=S)NC3=O)o2)c1
12 | < 4.52 | 6.26 | < 5.00 | 7.07 | < 5.00 | < 5.00 | < 5.00 | – | O=C1NC(=S)S/C1=C\c1ccc(-c2cccc(C(=O)NN3CCCCC3)c2)o1
